Experimental data as given in article PMC7778606, “Development of the phenylpyrazolo[3,4-d]pyrimidine-based, insulin-like growth factor receptor/Src/AXL-targeting small molecule kinase inhibitor” (Theranostics, 2021).
Like-named read-outs stand apart in the source and are kept apart here.

How the values were obtained:
H460 cells = assay: MTT assay, viability of H460 cells; format: cell-based; settings: Homo sapiens, NCI-H460, 72 h, three days, read-out: IC50 against the viability
Procedure: (§1) Cells were seeded into 96-well plates at a density of 1-2 × 10^3 cells/well and incubated for 24 h. Cells were treated with vehicle or various concentrations of test compounds for two (PC9 and PC9/ER cells) or three (other cells) days. Cells were further incubated with MTT solution (final concentration of 500 μg/mL) for 4 h at 37 °C. The formazan products were dissolved in dimethyl sulfoxide (DMSO), and the absorbance was measured at 570 nm. The data are presented as a percentage of the control group.

PC9/ER cells = assay: MTT assay, viability of erlotinib-resistant PC9/ER cells; format: cell-based; settings: Homo sapiens, PC-9/ER, 48 h, two days, 5% FBS, read-out: IC50 against the viability
Text: (§2) Human lung cancer cell lines (A549, H1299, H1993, H1944, H226B, H226Br, H460, H522, HCC15, and PC9), a diploid human lung fibroblast cell line (Wi38), and the Lewis lung carcinoma (LLC) cell line were purchased from the American Type Culture Collection (ATCC, Manassas, VA, USA) or kindly provided by Dr. John V. Heymach (MD Anderson Cancer Center, Houston, TX, USA). Human retinal pigment epithelial (RPE) cells were kindly provided by Dr. Jeong Hun Kim (College of Medicine, Seoul National University, Seoul, Republic of Korea). HT-22 cells were provided by Dr. Dong Gyu Jo (College of Pharmacy, Sungkyunkwan University, Suwon, Republic of Korea). Lung cancer cells were cultured in RPMI 1640 medium supplemented with 10% fetal bovine serum (FBS) and antibiotics (Welgene, Gyeongsan-si, Republic of Korea). LLC, HT-22, and Wi38 cells were maintained in DMEM supplemented with 10% FBS and antibiotics. RPE cells were maintained in DMEM/F12 supplemented with 10% FBS and antibiotics. […]
(§3) Cells were seeded into 96-well plates at a density of 1-2 × 10^3 cells/well and incubated for 24 h. […] The formazan products were dissolved in dimethyl sulfoxide (DMSO), and the absorbance was measured at 570 nm. […]

NSCLC cells = assay: Transwell migration assay; format: cell-based, human; settings: concentration-dependent, 8-12 h after treatment
[1] = Pharmacokinetic study in rats; format: in vivo, SD rats
Procedure: The pharmacokinetic properties of LL6 were investigated in SD rats (n = 3). The left femoral artery and vein were catheterized with polyethylene tube (Intramedic^TM PE-50; Becton-Dickinson Diagnostics, MD, USA) under Zoletil (Virbac, Carros, France) anesthesia (50 mg/kg, intramuscular injection). LL6 was dissolved in DMSO/PEG 400/normal saline mixture (35:35:30, v/v/v) and single dose solution (1 mg/kg) was administered to rat intravenously. Approximately 150 µL of blood samples were collected via femoral artery at predetermined time (1, 3, 5, 10, 15, 30, 60, 120 and 180 min) and equivalent volume of normal saline solution with 20 U/mL of heparin was replenished to prevent blood coagulation. After centrifugation of the sample at 16,000 × g for 5 min, 50 µL aliquot of plasma samples were stored at -20 °C until HPLC-MS/MS analysis. The Pharmacokinetic parameters, including terminal half-life (T½), area under the plasma concentration-time curve from time zero to time last (AUClast), area under the plasma concentration-time curve from time zero to time infinity (AUCinf), volume of distribution at steady-state (Vss) and mean residence time (MRT) were calculated using non-compartmental analysis (WinNonlin, version 3.1, NCA 201; Pharsight, Mountain View, CA, USA).

[2] = test system: Wi38, RPE, and HT-22 cells; assay: MTT assay, viability of normal cells; format: cell-based, human, mouse
Procedure: as §1

H522 cells = assay: MTT assay, viability of H522 cells; format: cell-based; settings: Homo sapiens, NCI-H522, 72 h, three days, read-out: IC50 against the viability
Procedure: as §1

H460/PmR cells = assay: MTT assay, viability of pemetrexed-resistant H460/PmR cells; format: cell-based; settings: Homo sapiens, NCI-H460, 72 h, three days, read-out: IC50 against the viability
Text: as §2, §3

H1299/PmR cells = assay: MTT assay, viability of pemetrexed-resistant H1299/PmR cells; format: cell-based; settings: Homo sapiens, NCI-H1299, 72 h, three days, read-out: IC50 against the viability
Text: as §2, §3

A549 cells = assay: MTT assay, viability of A549 cells; format: cell-based; settings: Homo sapiens
Procedure: as §1

AURKA = target: T1, AURKA (Homo sapiens, UniProt O14965); assay: KINOMEscan competition binding assay; settings: LL6 at 10 μM; read-out: Percent Control
T1 construct: purchased DiscoverX KINOMEscan
Procedure: […] To briefly summarize, Kd was measured by a competition binding assay that quantitatively measures the ability of a compound to compete with an immobilized ligand. […] […] See more details in the cited references [39]-[42] and see also at www.discoverx.com.

H1944 cells = assay: MTT assay, viability of H1944 cells; format: cell-based; settings: Homo sapiens, NCI-H1944, 72 h, three days, read-out: IC50 against the viability
Procedure: as §1

[3] = SD, rat, plasma, rats, intravenous, 1 mg/kg

T1 sequence (O14965 whole entry): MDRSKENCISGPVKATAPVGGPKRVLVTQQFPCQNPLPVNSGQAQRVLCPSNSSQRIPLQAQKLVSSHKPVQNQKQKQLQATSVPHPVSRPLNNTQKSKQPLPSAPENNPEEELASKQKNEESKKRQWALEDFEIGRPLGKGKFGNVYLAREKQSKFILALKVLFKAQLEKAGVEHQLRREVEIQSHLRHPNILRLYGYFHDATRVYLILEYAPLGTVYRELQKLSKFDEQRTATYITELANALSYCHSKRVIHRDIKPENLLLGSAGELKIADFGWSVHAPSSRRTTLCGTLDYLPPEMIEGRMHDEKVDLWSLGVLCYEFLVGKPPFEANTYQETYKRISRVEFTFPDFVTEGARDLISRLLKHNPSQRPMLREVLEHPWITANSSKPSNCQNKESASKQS

For Nc1ncnc2c1c(-c1ccc(Cl)cc1)nn2CCn1cc(COc2ccc(Nc3nccc(Nc4cnc5ccccc5c4)n3)cc2)nn1 [LL6], which IC50 (H460 cells) is on record?
Its IC50 is 3.43 µM.

And the IC50 (PC9/ER cells)?
The IC50 was 8.61 µM.

What about the “migration of NSCLC cells” value (NSCLC cells) of the same molecule?
The value was “effectively suppressed”.

What about the C0 ([1]; SD, rat, plasma, 1 mg/kg, rats, intravenous, read-out: theoretical initial plasma concentration) of the same molecule?
The C0 was 33.3 µM.

What about the AUC(0-inf) [1, 3] of the same molecule?
The AUC(0-inf) was 852 ng·h/mL.

And the AUC(0-t) [1, 3]?
The AUC(0-t) was 850 ng·h/mL.

What about the MRT [1, 3] of the same molecule?
Its MRT is 20.3 min.

And the clearance [1, 3]?
Its clearance is 19.3 ± 1.2 mL/min/kg.

What about the half-life [1, 3] of the same molecule?
Its half-life is 29.1 ± 10 min.

What about the C0 ([1]; SD, rat, plasma, rats, intravenous, 1 mg/kg, read-out: C0 (theoretical initial plasma concentration)) of the same molecule?
Its C0 is 22700 ng/mL.

And the Vd ([1]; SD, rat, plasma, rats, intravenous, 1 mg/kg, read-out: Vss)?
The Vd was 0.392 ± 0.186 L/kg.

What about the elimination in plasma ([1]; rats, intravenous) of the same molecule?
Its elimination in plasma is “rapid”.

What about the oral bioavailability ([1]; suggested by the pharmacokinetic study) of the same molecule?
Its oral bioavailability is “poor”.

And the “cytotoxicity in normal cells compared with the LDB combination” value [2]?
Its value is “markedly less cytotoxicity”.

And the IC50 (H522 cells)?
The IC50 was 3.55 µM.

And the IC50 (H460/PmR cells)?
Its IC50 is 3.64 µM.

And the IC50 (H1299/PmR cells)?
The IC50 was 1620 nM.

What about the activity at 10 µM (A549 cells; 72 h, A549, MTT assay, 10 μM, read-out: % cells growth at 10 μM) of the same molecule?
Its activity at 10 µM is 6.4%.

What about the IC50 (A549 cells; 72 h, A549, MTT assay, three days, read-out: IC50 against the viability (Table S4)) of the same molecule?
The IC50 was 6.63 µM.

And the IC50 (A549 cells; A549, MTT assay, read-out: IC50 against the viability of A549 cells (Table S2))?
Its IC50 is 2.59 µM.

And the remaining binding at 10 µM (AURKA)?
Its remaining binding at 10 µM is 48%.

And the IC50 (H1944 cells)?
The IC50 was 1020 nM.
